Results: patent publication US7105527B2, “N4-acylcytosine nucleosides for treatment of viral infections” (priority 2001, dated 2006)
Like-named read-outs stand apart in the source and are kept apart here.

Assays:
Assay type in all cases: cell-based
HIV-1LAl = assay: Anti-HIV (in PBM cells) assay, reverse transcriptase readout
Summary of the method: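 Human PBM cells infected with HIV-1; compounds diluted from DMSO stocks into growth medium, AZT as positive control. Virus in supernatant quantified day 6 post-infection by reverse transcriptase assay with (rA)n.(dT)12.18 template-primer; EC50 and EC90 from concentration-response curves by median effective method.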

HIV-1RF = assay: Anti-HIV (in MT-2 cells) assay, viral RNA accumulation; conditions: EC90, MT-2 cells, read-out: Anti-HIV-1 activity in different cells (EC90, μM) MT-2
Summary of the method: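 HIV-1RF in MT-2 cells: viral RNA quantified after 3 days of infection by biotinylated capture/alkaline phosphatase reporter oligonucleotides. HIV-1NL4-3 recombinant virus in MT-4 cells: drug added 24 h post-infection, p24 measured by ELISA 3 days later.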

MT-2 cells = assay: Cytotoxicity assay in MT-2 cells
Summary of the method: (§1)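 Compound toxicity measured in each cell type, with cycloheximide as positive cytotoxic control and solvent-exposed untreated cells as negative control. Cytotoxicity IC50 derived from concentration-response curves by the median effective method.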

[1] = system: CEM (human lymphoblastoid) cells; assay: Cytotoxicity assay in CEM cells
Summary of the method: as §1

Vero cells = assay: Cytotoxicity assay in Vero cells
Summary of the method: as §1

HepG2 cells = assay: Cytotoxicity assay in HepG2 cells
Summary of the method: as §1

HIV-1NL4-3 = assay: Anti-HIV assay in MT-4 cells, consensus p24 assay
Experimental: In a second antiviral testing system, the potency of the compounds was determined by measurement of viral RNA accumulation in HIV-1RF infected MT-2 cells (Bacheler L T, Paul M, Otto M J, Jadhav P K, Stone B A & Miller J A (1994) An assay for HIV RNIn infected cell lysates, and its use for rapid evaluation of antiviral efficacy. Antivir. Chem. Chemother. 5:111–121). The virus titer was established to determine the dilution producing 15 to 30 ng/RNA per well of HIV RNIn 3 days of infection. HIV-1 RNA was quantified using biotinylated capture and alkaline phosphatase-derivatized reporter oligonucleotides as described previously (Charvet A-S, Camplo M, Faury P, Graciet J C, Mourier N, Chermann J C & Kraus J L (1994) Inhibition of human immunodeficiency virus type 1 replication by phosphonoformate- and phosphonoacetate-2′,3′-dideoxy-3′-thiacytidine conjugates. J. Med. Chem. 37:2216–2223). In a third system, the effect of analogs on the replication of HIV-1NL4-3 was determined via the InterCompany Consortium consensus p24 assay as previously described (Jadhav P K & MacKay M F (1997) Cyclic urea amide: HIV-1 protease inhibitors with low nanomolar potency against both wild types and protease inhibitor resistant mutants of HIV. J. Med. Chem. 40:181–190). Recombinant viruses were recovered by transfecting the appropriate NL4-3 plasmid by lipofection. Virus stocks recovered 7 to 10 days post-transfection were titered on MT-4 cells to determine if the dilution produced 1,000 to 3,000 ng p24 in 4 days. This dilution was then used in drug susceptibility assays, where drug was added 24 h post infection of cells, and p24 quantified by ELISA 3 days later.

human PBM cells = assay: Cytotoxicity assay in PBM cells
Summary of the method: as §1

[2] = Table 2, read-out: Anti-HIV-1 activity in different cells (EC90, μM) PBM
[3] = Table 2, read-out: Cytotoxicity in different cells (IC50, μM) MT-2
[4] = Table 2, read-out: Cytotoxicity in different cells (IC50, μM) CEM
[5] = Table 2, read-out: Cytotoxicity in different cells (IC50, μM) Vero
[6] = Table 2, read-out: Cytotoxicity in different cells (IC50, μM) HepG2
[7] = Table 2, read-out: Anti-HIV-1 activity in different cells (EC90, μM) MT-4
[8] = Table 2, read-out: Cytotoxicity in different cells (IC50, μM) PBM

SMILES | EC90 (HIV-1LAl; [2]) [µM] | EC90 (HIV-1RF; Table 2) [µM] | IC50 (MT-2 cells; [3]) [µM] | IC50 [1, 4] [µM] | IC50 (Vero cells; [5]) [µM] | IC50 (HepG2 cells; [6]) [µM] | EC90 (HIV-1NL4-3; [7]) [µM] | IC50 (human PBM cells; [8]) [µM] | EC90 (HIV-1LAl; Table 1, read-out: Anti-HIV-1 activity in different cells (EC90, μM) PBM) [µM] | EC90 (HIV-1RF; Table 1) [µM] | IC50 (MT-2 cells; Table 1, read-out: Cytotoxicity in different cells (IC50, μM) MT-2) [µM] | IC50 ([1]; Table 1, read-out: Cytotoxicity in different cells (IC50, μM) CEM) [µM] | IC50 (Vero cells; Table 1, read-out: Cytotoxicity in different cells (IC50, μM) Vero) [µM] | IC50 (HepG2 cells; Table 1, read-out: Cytotoxicity in different cells (IC50, μM) HepG2) [µM] | EC90 (HIV-1NL4-3; Table 1, read-out: Anti-HIV-1 activity in different cells (EC90, μM) MT-4) [µM] | IC50 (human PBM cells; Table 1, read-out: Cytotoxicity in different cells (IC50, μM) PBM) [µM]
CC(C)(C)c1ccc(C(=O)Nc2nc(=O)n([C@H]3C=C[C@@H](CO)O3)cc2F)cc1 [Compound 53, β-D-N^4-(4-tert-Butylbenzoyl)-2′,3′-didehydro-2′,3′-dideoxy-5-fluorocytidine] | 0.41 | 0.13 | > 50 | 9.9 | 59.2 | > 100 | 1.1 | 5 |  |  |  |  |  |  |  | 
O=C(Nc1nc(=O)n([C@H]2C=C[C@@H](CO)O2)cc1F)c1cccc(F)c1 [Compound 39, β-D-2′,3′-Didehydro-2′,3′-dideoxy-5-fluoro-N^4-(3-fluorobenzoyl)cytidine] | 7.82 | 1 | > 50 | 4.2 | > 100 | > 100 | 3.1 | 45.3 |  |  |  |  |  |  |  | 
Nc1nc(=O)n([C@H]2C=C[C@@H](CO)O2)cc1F [D-D4FC, β-D-2′,3′-Dideoxy-2′,3′-didehydro-5-fluorocytidine, reference compound] | 0.77 | 1.19 | > 50 | > 100 | > 100 | > 100 | 1.15 | > 100 |  |  |  |  |  |  |  | 
O=C(Nc1nc(=O)n([C@H]2C=C[C@@H](CO)O2)cc1F)c1cccc(Cl)c1 [Compound 40, β-D-N^4-(3-Chlorobenzoyl)-2′,3′-didehydro-2,3′-dideoxy-5-fluorocytidine] | 1.71 | 2 | > 50 | 11.2 | 100 | 32.4 | 3.4 | 45.3 |  |  |  |  |  |  |  | 
O=C(Nc1nc(=O)n([C@H]2C=C[C@@H](CO)O2)cc1F)c1cccc(Br)c1 [Compound 41, β-D-N^4-(3-Bromobenzoyl)-2′,3′-didehydro-2′,3′-dideoxy-5-fluorocytidine] | 1.71 | 1 | > 50 | 24.9 | 99.7 | > 100 | 2.2 | 51.6 |  |  |  |  |  |  |  | 
CCCC(=O)Nc1nc(=O)n([C@H]2C=C[C@@H](CO)O2)cc1F [Compound 60, β-D-N^4-Butyryl-2′,3′-didehydro-2′,3′-dideoxy-5-fluorocytidine] | 1.89 | 2.4 | > 50 | 12.2 | > 100 | > 100 | 3.1 | 52.4 |  |  |  |  |  |  |  | 
O=C(Nc1nc(=O)n([C@H]2CC[C@@H](CO)O2)cc1F)c1cccc([N+](=O)[O-])c1 [Compound 19, β-D-2′,3′-Dideoxy-S-fluoro-N-(3-nitrobenzoyl)cytidine] |  |  |  |  |  |  |  |  | 1.6 | 1.8 | > 50 | > 100 | > 100 | > 100 | 1.59 | > 100
CCc1ccc(C(=O)Nc2nc(=O)n([C@H]3C=C[C@@H](CO)O3)cc2F)cc1 [Compound 51, β-D-2′,3′-Didehydro-2′,3′-dideoxy-N^4-(4-ethyllbenzoyl)-5-fluorocytidine] | 6.2 | 0.24 | > 50 | 8.1 | 40.3 | > 100 | 2.3 | 13 |  |  |  |  |  |  |  | 
